# Measurements as given in patent US3940382A, “1,2'-Di-N-substituted kanamycin B compounds” (Zaidan Hojin Biseibutsu Kagaku Kenkyu Kai, priority 1973, dated 1976).
# Read-outs that look alike come from different tables or passages of the source.
# Experiments:
# drug-resistant bacteria = details: cited from earlier work
# [1] = test system: gram-negative and gram-positive bacteria sensitive to the kanamycins; details: cited from earlier work
# [2] = test system: Escherichia coli JR66/W677; details: strain adenylylating the 2"-hydroxyl group; cited from earlier work
# [3] = test system: kanamycin-resistant strains; details: strains phosphorylating the 3'-hydroxyl group of kanamycins; cited from earlier work
# [4] = test system: Pseudomonas aeruginosa No.12; test: MIC, serial dilution on nutrient agar; format: cell-based; details: Pseudomonas aeruginosa, NO.12, 18 h, read-out: Minimum Inhibitory Concentrations
# [5] = test system: Corynebacterium bovis 1810; test: MIC, serial dilution on nutrient agar; format: cell-based; details: read-out: Minimum Inhibitory Concentrations
# [6] = test system: Mycobacterium smegmatis ATCC 607; test: MIC, serial dilution on nutrient agar; format: cell-based; details: Mycolicibacterium smegmatis, read-out: Minimum Inhibitory Concentrations
# [7] = test system: Escherichia coli K-12 ML 1629; test: MIC, serial dilution on nutrient agar; format: cell-based; details: read-out: Minimum Inhibitory Concentrations
# [8] = test system: Klebsiella pneumoniae 22 -3038; test: MIC, serial dilution on nutrient agar; format: cell-based; details: read-out: Minimum Inhibitory Concentrations
# Bacillus anthracis = test: microbe, parasite or virus in culture; format: cell-based; details: 18 h, read-out: Minimum Inhibitory Concentrations
# Salmonella typhosa T-63 = test: MIC, serial dilution on nutrient agar; format: cell-based; details: Salmonella enterica, 18 h, read-out: Minimum Inhibitory Concentrations
# [9] = test system: Shigella dysenteriae JS 11910; test: MIC, serial dilution on nutrient agar; format: cell-based; details: JS11910, 18 h, read-out: Minimum Inhibitory Concentrations
# Sarcina lutea PCI 1001 = test: MIC, serial dilution on nutrient agar; format: cell-based; details: Micrococcus luteus, read-out: Minimum Inhibitory Concentrations
# [10] = test system: Escherichia coli LA290 R64; test: MIC, serial dilution on nutrient agar; format: cell-based; details: LA290R64, 18 h, read-out: Minimum Inhibitory Concentrations
# [11] = test system: Staphylococcus aureus FDA 209P; test: MIC, serial dilution on nutrient agar; format: cell-based; details: FDA209P, read-out: Minimum Inhibitory Concentrations
# [12] = test system: Pseudomonas aeruginosa A3; test: MIC, serial dilution on nutrient agar; format: cell-based; details: read-out: Minimum Inhibitory Concentrations
# [13] = test system: Escherichia coli K-12 ML 1630; test: MIC, serial dilution on nutrient agar; format: cell-based; details: K12ML1630, 37°C, 18 hours, read-out: Minimum Inhibitory Concentrations
# Description: (§1) The minimum inhibitory concentrations (mcg/ml) of 1,2'-di-N-[(S)-4-amino-2-hydroxybutyryl]-kanamycin B (abbreviated as 1,2'-AHB-KMB), 1,2'-di-N-[(S)-4-amino-2-hydroxybutyryl]-3',4'-dideoxykanamycin B (abbreviated as 1,2'-AHB-DKB), 1,2'-di-N-DL-isoseryl-3',4'-dideoxykanamycin B (abbreviated as 1,2'-IS-DKB) and 1,2'-di-N-DL-isoseryl-kanamycin B (abbreviated as 1,2'-IS-KMB) against various microorganisms were determined according to serial dilution method using nutrient agar medium at 37°C, the estimation being effected after 18 hours incubation. For comparison, the minimum inhibitory concentrations of kanamycin B (abbreviated as KMB) and 3',4'-dideoxykanamycin B (abbreviated as DKB) were also determined in the same manner as mentioned above.
# [14] = test system: Shigella flexneri 4b JS 11811; test: MIC, serial dilution on nutrient agar; format: cell-based; details: 4BJS11811, 37°C, 18 hours, read-out: Minimum Inhibitory Concentrations
# Description: as §1
# Shigella sonnei JS 11746 = test: MIC, serial dilution on nutrient agar; format: cell-based; details: JS11746, 37°C, 18 hours, read-out: Minimum Inhibitory Concentrations
# Description: as §1
# Escherichia coli K-12 = test: MIC, serial dilution on nutrient agar; format: cell-based; details: read-out: Minimum Inhibitory Concentrations
# [15] = test system: Staphylococcus aureus Smith; test: MIC, serial dilution on nutrient agar; format: cell-based; details: read-out: Minimum Inhibitory Concentrations
# [16] = test system: Pseudomonas aeruginosa 99; test: MIC, serial dilution on nutrient agar; format: cell-based; details: read-out: Minimum Inhibitory Concentrations
# [17] = test system: Escherichia coli JR66/W677; test: MIC, serial dilution on nutrient agar; format: cell-based; details: Escherichia coli, JR66/W677, 18 h, read-out: Minimum Inhibitory Concentrations
# [18] = test system: Bacillus subtilis PCI 219; test: MIC, serial dilution on nutrient agar; format: cell-based; details: read-out: Minimum Inhibitory Concentrations
# [19] = test system: Escherichia coli LA290 R55; test: MIC, serial dilution on nutrient agar; format: cell-based; details: LA290R55, 18 h, read-out: Minimum Inhibitory Concentrations
# Escherichia coli W677 = test: MIC, serial dilution on nutrient agar; format: cell-based; details: read-out: Minimum Inhibitory Concentrations
# [20] = test system: Salmonella enteritidis 1891; test: MIC, serial dilution on nutrient agar; format: cell-based; details: Salmonella enterica, read-out: Minimum Inhibitory Concentrations
# Escherichia coli NIHJ = test: MIC, serial dilution on nutrient agar; format: cell-based; details: read-out: Minimum Inhibitory Concentrations
# [21] = test system: Bacillus subtilis NRRL B-558; test: MIC, serial dilution on nutrient agar; format: cell-based; details: read-out: Minimum Inhibitory Concentrations
# [22] = test system: Bacillus cereus ATCC 10702; test: MIC, serial dilution on nutrient agar; format: cell-based; details: read-out: Minimum Inhibitory Concentrations
# [23] = test system: Escherichia coli K-12 ML 1410; test: MIC, serial dilution on nutrient agar; format: cell-based; details: read-out: Minimum Inhibitory Concentrations
# [24] = test system: Pseudomonas aeruginosa TI-13; test: MIC, serial dilution on nutrient agar; format: cell-based; details: read-out: Minimum Inhibitory Concentrations
# Proteus vulgaris OX 19 = test: MIC, serial dilution on nutrient agar; format: cell-based; details: read-out: Minimum Inhibitory Concentrations
# [25] = test system: Escherichia coli LA290 R56; test: MIC, serial dilution on nutrient agar; format: cell-based; details: LA290R56, 18 h, read-out: Minimum Inhibitory Concentrations
# [26] = test system: Escherichia coli K-12 ML 1410 R81; test: MIC, serial dilution on nutrient agar; format: cell-based; details: 18 h, read-out: Minimum Inhibitory Concentrations
# [27] = test system: Staphylococcus aureus Terejima; test: MIC, serial dilution on nutrient agar; format: cell-based; details: read-out: Minimum Inhibitory Concentrations
# [28] = test system: Klebsiella pneumoniae PCI 602; test: MIC, serial dilution on nutrient agar; format: cell-based; details: read-out: Minimum Inhibitory Concentrations
# [29] = test system: Pseudomonas aeruginosa GN315; test: MIC, serial dilution on nutrient agar; format: cell-based; details: read-out: Minimum Inhibitory Concentrations
smiles,measurement,setting,value
NCC(O)C(=O)N[C@@H]1C[C@H](N)[C@@H](O[C@H]2O[C@H](CN)[C@@H](O)[C@H](O)[C@H]2N)[C@H](O)[C@H]1O[C@H]1O[C@H](CO)[C@@H](O)[C@H](N)[C@H]1O (stereo partly shown) [1N-isoserylkanamycinB],antibacterial activity against the drug-resistant bacteria,drug-resistant bacteria,effective
same,effectiveness against bacteria sensitive to the kanamycins,[1],effective
NCC(O)C(=O)N[C@@H]1C[C@H](N)[C@@H](O[C@H]2O[C@H](CN)[C@@H](O)[C@H](O)[C@H]2O)[C@H](O)[C@H]1O[C@H]1O[C@H](CO)[C@@H](O)[C@H](N)[C@H]1O (stereo partly shown) [1-N-isoserylkanamycin],antibacterial activity against the drug-resistant bacteria,drug-resistant bacteria,effective
same,effectiveness against bacteria sensitive to the kanamycins,[1],effective
"NCC(O)C(=O)N[C@@H]1C[C@H](N)[C@@H](O[C@H]2O[C@H](CN)CC[C@H]2N)[C@H](O)[C@H]1O[C@H]1O[C@H](CO)[C@@H](O)[C@H](N)[C@H]1O (stereo partly shown) [1-N-isoseryl-3',4'-dideoxykanamycin B]",antibacterial activity against the drug-resistant bacteria,drug-resistant bacteria,effective
same,effectiveness against bacteria sensitive to the kanamycins,[1],effective
NC[C@H]1O[C@H](O[C@H]2[C@H](O)[C@@H](O[C@H]3O[C@H](CO)[C@@H](O)[C@H](N)[C@H]3O)[C@H](N)C[C@@H]2N)[C@H](O)C[C@@H]1O [3'-deoxykanamycin],activity against kanamycin-resistant strains such as Escherichia coli JR66/W677,[2],practically inactive
same,effectiveness against kanamycin-resistant strains,[3],actually effective
"NCC[C@H](O)C(=O)N[C@@H]1CC[C@@H](CN)O[C@@H]1O[C@H]1[C@H](O)[C@@H](O[C@H]2O[C@H](CO)[C@@H](O)[C@H](N)[C@H]2O)[C@H](NC(=O)[C@@H](O)CCN)C[C@@H]1N [1,2'-AHB-DKB, 1,2'-di-N-[(S)-4-amino-2-hydroxybutyryl]-3',4'-dideoxykanamycin B]",MIC,[4],6.25 mg/L
same,MIC,"[5]; Corynebacterium bovis 1810, nutrient agar, 37°C, 18 hours",0.78 mg/L
same,MIC,"[6]; ATCC607, Mycobacterium smegmatis ATCC 607, nutrient agar, 37°C, 18 hours",0.2 mg/L
same,MIC,"[7]; K12ML1629, Escherichia coli K-12 ML 1629, nutrient agar, 37°C, 18 hours",3.13 mg/L
same,MIC,"[8]; 223038, Klebsiella pneumoniae 22 -3038, nutrient agar, 37°C, 18 hours",1.56 mg/L
same,MIC,Bacillus anthracis,< 0.2 mg/L
same,MIC,Salmonella typhosa T-63,0.78 mg/L
same,MIC,[9],6.25 mg/L
same,MIC,"Sarcina lutea PCI 1001; PCI1001, Sarcina lutea PCI 1001, nutrient agar, 37°C, 18 hours",1.56 mg/L
same,MIC,[10],0.78 mg/L
same,MIC,"[11]; Staphylococcus aureus FDA 209P, nutrient agar, 37°C, 18 hours",0.78 mg/L
same,MIC,"[12]; Pseudomonas aeruginosa A3, nutrient agar, 37°C, 18 hours",25 mg/L
same,MIC,[13],3.13 mg/L
same,MIC,[14],6.25 mg/L
same,MIC,Shigella sonnei JS 11746,6.25 mg/L
same,MIC,"Escherichia coli K-12; K12, Escherichia coli K-12, nutrient agar, 37°C, 18 hours",1.56 mg/L
same,MIC,"[15]; Staphylococcus aureus Smith, nutrient agar, 37°C, 18 hours",0.2 mg/L
same,MIC,"[16]; Pseudomonas aeruginosa 99, nutrient agar, 37°C, 18 hours",50 mg/L
same,MIC,[17],6.25 mg/L
same,MIC,"[18]; PCI219, Bacillus subtilis PCI 219, nutrient agar, 37°C, 18 hours",< 0.2 mg/L
same,MIC,[19],0.78 mg/L
same,MIC,"Escherichia coli W677; Escherichia coli W677, nutrient agar, 37°C, 18 hours",1.56 mg/L
same,MIC,"[20]; Salmonella enteritidis 1891, nutrient agar, 37°C, 18 hours",1.56 mg/L
same,MIC,"Escherichia coli NIHJ; Escherichia coli NIHJ, nutrient agar, 37°C, 18 hours",3.13 mg/L
same,MIC,"[21]; NRRLB558, Bacillus subtilis NRRL B-558, nutrient agar, 37°C, 18 hours",0.2 mg/L
same,MIC,"[22]; ATCC10702, Bacillus cereus ATCC 10702, nutrient agar, 37°C, 18 hours",1.56 mg/L
same,MIC,"[23]; K12ML1410, Escherichia coli K-12 ML 1410, nutrient agar, 37°C, 18 hours",3.13 mg/L
same,MIC,"[24]; TI13, Pseudomonas aeruginosa TI-13, nutrient agar, 37°C, 18 hours",12.5 mg/L
same,MIC,"Proteus vulgaris OX 19; OX19, Proteus vulgaris OX 19, nutrient agar, 37°C, 18 hours",0.78 mg/L
same,MIC,[25],0.78 mg/L
same,MIC,[26],1.56 mg/L
same,MIC,"[27]; Staphylococcus aureus Terejima, nutrient agar, 37°C, 18 hours",< 0.2 mg/L
same,MIC,"[28]; PCI602, Klebsiella pneumoniae PCI 602, nutrient agar, 37°C, 18 hours",0.78 mg/L
same,MIC,"[29]; Pseudomonas aeruginosa GN315, nutrient agar, 37°C, 18 hours",100 mg/L
"NC[C@H]1O[C@H](O[C@H]2[C@H](O)[C@@H](O[C@H]3O[C@H](CO)[C@@H](O)[C@H](N)[C@H]3O)[C@H](N)C[C@@H]2N)[C@H](N)[C@@H](O)[C@@H]1O [KMB, kanamycin B]",MIC,[4],12.5 mg/L
same,MIC,"[5]; Corynebacterium bovis, 1810, 18 h",1.56 mg/L
same,MIC,"[6]; ATCC607, 18 h",0.78 mg/L
same,MIC,"[7]; Escherichia coli, K12ML1629, 18 h",> 100 mg/L
same,MIC,"[8]; Klebsiella pneumoniae, 223038, 18 h",> 100 mg/L
same,MIC,Bacillus anthracis,< 0.2 mg/L
same,MIC,Salmonella typhosa T-63,0.2 mg/L
same,MIC,[9],3.13 mg/L
same,MIC,"Sarcina lutea PCI 1001; PCI1001, 18 h",1.56 mg/L
same,MIC,[10],3.13 mg/L
same,MIC,"[11]; Staphylococcus aureus, 18 h",< 0.2 mg/L
same,MIC,"[12]; Pseudomonas aeruginosa, A3, 18 h",50 mg/L
same,MIC,[13],> 100 mg/L
same,MIC,[14],3.13 mg/L
same,MIC,Shigella sonnei JS 11746,1.56 mg/L
same,MIC,"Escherichia coli K-12; Escherichia coli, K12, 18 h",0.78 mg/L
same,MIC,"[15]; Staphylococcus aureus, 18 h",0.39 mg/L
same,MIC,"[16]; Pseudomonas aeruginosa, 99, 18 h",> 100 mg/L
same,MIC,[17],> 100 mg/L
same,MIC,"[18]; Bacillus subtilis, PCI219, 18 h",< 0.2 mg/L
same,MIC,[19],12.5 mg/L
same,MIC,"Escherichia coli W677; Escherichia coli, W677, 18 h",0.39 mg/L
same,MIC,"[20]; ENTERITIDIS, 18 h",1.56 mg/L
same,MIC,"Escherichia coli NIHJ; Escherichia coli, 18 h",0.78 mg/L
same,MIC,"[21]; Bacillus subtilis, NRRLB558, 18 h",< 0.2 mg/L
same,MIC,"[22]; Bacillus cereus, ATCC10702, 18 h",0.78 mg/L
same,MIC,"[23]; Escherichia coli, K12ML1410, 18 h",0.78 mg/L
same,MIC,"[24]; Pseudomonas aeruginosa, TI13, 18 h",100 mg/L
same,MIC,"Proteus vulgaris OX 19; Proteus vulgaris, OX19, 18 h",0.78 mg/L
same,MIC,[25],3.13 mg/L
same,MIC,[26],> 100 mg/L
same,MIC,"[27]; Staphylococcus aureus, 18 h",< 0.2 mg/L
same,MIC,"[28]; Klebsiella pneumoniae, PCI602, 18 h",0.78 mg/L
same,MIC,"[29]; Pseudomonas aeruginosa, GN315, 18 h",> 100 mg/L
